From patent US6180767A, “Peptide nucleic acid conjugates” (Thomas Jefferson University, priority 1997, dated 2001)
Where no end group is shown, it is not given here.

Key:
[1] = tested on: P6 cells (murine Balb/c3T3 cells transfected with human IGF1R gene); assay: Cellular uptake of fluoresceinated compounds, confocal fluorescence microscopy; type: cell-based; conditions: 1 μM, 4 hours at 37° C., serum-free DMEM
Protocol: P6 cells, which are murine Balb/c3T3 cells transfected with human insulin-like growth factor receptor (IGF1R) gene, overexpress IGF1R. The cells were plated on LAB TEK 8 well tissue culture "CHAMBER SLIDES" from Nunc, Inc., Naperville, Ill. in 10% FBS/DMEM at a concentration of 20,000 cells/chamber. The cells were allowed to attach and grow for 24 hours in a humidified cell incubator with 5% CO2 at 37° C. The attached cells were then washed with serum-free DMEM and PBS. The cells were incubated for 4 hours at 37° C. with 1 μM of the fluoresceinated PNA-peptide (H-Gly-SEQ ID NO:5/SEQ ID NO: 1) or fluoresceinyl-PNA (H-Gly-SEQ ID NO:5-CONH2) in serum-free DMEM. Human Jurkat cells, which have very low copies of IGF1R (Lal et al., Leukemia Res. 17, 31-35, 1983) were used as a negative control. The Jurkat cells were grown in 10% FBS/RPMI. The Jurkat cells were treated in the same manner as the P6 cells, except that necessary modifications were made in handling the cells as they grow in suspension. […]
The fixed slides were analyzed under laser confocal fluorescence and phase contrast microscopy to observe the cellular uptake of the fluorescent oligomers. […] This is an advantage over conventional fluorescence microscopy, which cannot differentiate between signals inside and outside of the cells.

[2] = tested on: tumor cell lines dependent on IGFR1; conditions: Pietrzkowski et al., Cancer Res. 52, 6447-6451, 1992; cited from earlier work
[3] = biological target: IGF1-R (Homo sapiens, UniProt P08069); conditions: Pietrzkowski et al., Cancer Res. 52, 6447-6451, 1992; cited from earlier work
Chain of IGF1-R (P08069 31-736 limits assumed): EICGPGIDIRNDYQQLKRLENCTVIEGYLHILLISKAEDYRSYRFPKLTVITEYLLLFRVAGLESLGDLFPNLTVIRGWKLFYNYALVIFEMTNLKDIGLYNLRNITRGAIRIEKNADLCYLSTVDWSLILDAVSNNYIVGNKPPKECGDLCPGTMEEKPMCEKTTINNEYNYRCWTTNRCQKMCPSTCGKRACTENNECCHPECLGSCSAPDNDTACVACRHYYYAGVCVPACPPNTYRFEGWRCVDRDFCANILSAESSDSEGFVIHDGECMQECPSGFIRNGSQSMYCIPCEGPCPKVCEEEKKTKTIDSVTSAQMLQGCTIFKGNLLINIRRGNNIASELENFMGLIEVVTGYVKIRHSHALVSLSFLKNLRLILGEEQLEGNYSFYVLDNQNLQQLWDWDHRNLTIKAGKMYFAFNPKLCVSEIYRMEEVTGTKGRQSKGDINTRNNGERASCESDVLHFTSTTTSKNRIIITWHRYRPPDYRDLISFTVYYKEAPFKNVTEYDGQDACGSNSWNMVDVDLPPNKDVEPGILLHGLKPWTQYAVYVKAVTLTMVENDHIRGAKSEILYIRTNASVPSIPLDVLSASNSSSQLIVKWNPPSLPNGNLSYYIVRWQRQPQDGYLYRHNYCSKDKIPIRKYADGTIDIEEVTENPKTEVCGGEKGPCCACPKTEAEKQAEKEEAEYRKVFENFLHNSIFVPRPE
Chain of IGF1-R (P08069 741-1367 partner limits assumed): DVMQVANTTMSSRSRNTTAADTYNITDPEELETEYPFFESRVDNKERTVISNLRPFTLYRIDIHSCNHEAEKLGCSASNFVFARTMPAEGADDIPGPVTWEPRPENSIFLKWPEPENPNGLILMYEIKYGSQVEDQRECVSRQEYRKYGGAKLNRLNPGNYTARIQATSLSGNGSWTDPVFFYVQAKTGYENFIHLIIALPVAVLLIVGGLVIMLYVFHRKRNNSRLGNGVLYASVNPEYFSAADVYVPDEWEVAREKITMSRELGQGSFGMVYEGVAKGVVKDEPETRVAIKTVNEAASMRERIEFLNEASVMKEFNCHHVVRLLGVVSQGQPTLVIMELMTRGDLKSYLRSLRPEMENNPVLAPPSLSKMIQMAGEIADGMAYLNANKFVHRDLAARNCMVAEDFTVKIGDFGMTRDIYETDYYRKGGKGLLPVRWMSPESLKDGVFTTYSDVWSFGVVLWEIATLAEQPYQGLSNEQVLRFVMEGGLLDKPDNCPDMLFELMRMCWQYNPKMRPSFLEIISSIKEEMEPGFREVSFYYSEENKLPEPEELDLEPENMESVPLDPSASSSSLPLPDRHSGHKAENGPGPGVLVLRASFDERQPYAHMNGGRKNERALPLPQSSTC

[4] = tested on: Balb/c3T3 cells; assay: Cellular uptake of [14C]PNA derivatives; type: cell-based, murine; conditions: Balb/c3T3 cells (low levels of IGF1R), 14C-labeled derivatives, FIG. 7
[5] = tested on: Jurkat cells; assay: Cellular uptake of [14C]PNA derivatives; type: cell-based, Human; conditions: Jurkat cells (virtually no IGF1R), 1 μM 14C-labeled derivatives, FIG. 8
Protocol: (§1) Uptake studies with radiolabeled PNA derivatives were carried out. P6 or Jurkat cells above were plated in 12.5 cm^2 flasks and grown for two days to 50-80% confluence, on the order of 10^6 cells per flask. The medium was then removed and replaced with fresh medium containing 1 μM of the various [^14 C]PNA derivatives, pre-warmed to 37° C.; background cells received medium with no [^14 C]PNA derivatives. After incubation for various times, attached cells were washed directly in the flasks using four washes--once with fresh medium, once with PBS, once with high salt/low pH buffer, and once with PBS. […]
(§2) After the final wash, the cells were lysed in 1 ml of 1% SDS in H2 O, and the samples were processed for total protein measurement and liquid scintillation counting. 50 μl of the lysate was allocated for total protein measurement, and ^14 C activity in the remaining lysate was measured by liquid scintillation counting, from which background counts were subtracted. […]
(§3) Control samples of varying confluence were trypsinized following the last wash, resuspended in PBS for cell counting, and then lysed to obtain total protein values. […] The curve was used to estimate cell counts from the total protein measurements of treated cells, and radioactivity counts were used to calculate pmoles of oligonucleotide using the specific activity of each labeled oligonucleotide. […]

[6] = tested on: P6 cells; assay: Cellular uptake of [14C]PNA derivatives; type: cell-based, murine; conditions: 1 μM 14C-labeled derivatives, FIG. 6
Protocol: as §1, §2, §3

[7] = Serum stability of the PNA-peptide conjugate; type: in vitro ADME; conditions: 10% fetal bovine serum/PBS, 12 hours and 24 hours, reverse phase HPLC
Protocol: The title conjugate was incubated in 10% fetal bovine serum/PBS for 12 hours and 24 hours. After the incubation, one volume of acetonitrile was added to precipitated protein, which was pelleted by centrifugation. Free conjugate in the supernatant was dried under vacuo. It was then analyzed by reverse phase HPLC as described above.

O=C1OC2(c3ccc(O)cc3Oc3cc(O)ccc32)c2ccccc21 [fluorescein]
cellular uptake (fluorescence within the cells) [1]: absence of uptake

CSKAPKLPAAYC (cysteine pairing not given here) [SEQ ID NO:8]
inhibition of proliferation/growth of tumor cell lines [2]: inhibits the growth of certain cancer cell lines | competition with the natural ligand for binding to IGF1-R [3]: competes with the natural ligand for binding to IGF1-R

GCSKAPKLPAALC (cysteine pairing not given here) [SEQ ID NO:4]
inhibition of proliferation/growth of tumor cell lines [2]: inhibits the proliferation of tumor cell lines dependent on IGFR1

H-Gly-CCGCTTCCTTTC-Gly-Gly-Gly-Gly-D-Cys-D-Ser-D-Lys-D-Cys-NH2 [title PNA-peptide conjugate]
uptake relative to the controls [4]: four-fold excess | uptake relative to the controls [5]: little preferential uptake | uptake relative to control PNA or control PNA-peptide [6]: five-fold more uptake | stability of the conjugate in serum [7]: stability of the conjugate was confirmed
